Measured values as given in paper PMC9975586, “Inhibitory effect of Selaginella doederleinii hieron on human cytochrome P450” (Frontiers in Pharmacology, 2023).
Like-named read-outs stand apart in the source and are kept apart here.

Columns and labels:
CYP2C8 = molecular target: T1, CYP2C8 (Homo sapiens, UniProt P10632); experiment: in vitro; details: for inhibition at 15 min, 10 µM: human, microsomes, pH 7.4
T1 sequence (P10632 1-490): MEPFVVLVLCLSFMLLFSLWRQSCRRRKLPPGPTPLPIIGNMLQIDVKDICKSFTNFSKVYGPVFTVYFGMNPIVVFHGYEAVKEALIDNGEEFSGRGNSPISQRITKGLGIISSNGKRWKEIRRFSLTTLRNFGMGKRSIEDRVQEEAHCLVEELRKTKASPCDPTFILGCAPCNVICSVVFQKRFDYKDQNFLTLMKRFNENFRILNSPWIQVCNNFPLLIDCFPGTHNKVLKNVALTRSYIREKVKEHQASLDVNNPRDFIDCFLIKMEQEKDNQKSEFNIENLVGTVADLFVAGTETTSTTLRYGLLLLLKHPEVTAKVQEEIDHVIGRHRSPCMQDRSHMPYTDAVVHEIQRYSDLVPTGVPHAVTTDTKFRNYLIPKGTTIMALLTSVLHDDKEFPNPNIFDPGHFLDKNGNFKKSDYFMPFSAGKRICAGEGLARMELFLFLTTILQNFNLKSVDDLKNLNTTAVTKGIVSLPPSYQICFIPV
Experimental: (§1) The contents of organic solvent and DMSO in incubation mixture was under 1% (v/v) and 0.1% (v/v) respectively. Reactions were terminated by adding 200 µL of an ice-cold stop solution consisting of methanol containing Rutin (2 µg/ml) as internal standard. Samples were subsequently cooled in ice bath to precipitate proteins. Supernatants were collected into clean tubes after centrifugation at 12000 rpm at 4°C for 10 min prior to inject into LC-MS/MS.
(§2) Percentages of control activity were calculated to determine inhibition potency. The inhibition curves were obtained by incubating the cocktail of substrates with 10–11 different compounds’ concentrations, where Delicaflavone and Amentoflavone were 0–50 µM.
(§3) For specific MRM parameters, please refer to Supplementary Table S3.

CYP2C9 = CYP2C9 (Homo sapiens, UniProt P11712); experiment: in vitro; details: for inhibition at 15 min, 10 µM: human, microsomes, pH 7.4
Chain of CYP2C9 (P11712 whole entry): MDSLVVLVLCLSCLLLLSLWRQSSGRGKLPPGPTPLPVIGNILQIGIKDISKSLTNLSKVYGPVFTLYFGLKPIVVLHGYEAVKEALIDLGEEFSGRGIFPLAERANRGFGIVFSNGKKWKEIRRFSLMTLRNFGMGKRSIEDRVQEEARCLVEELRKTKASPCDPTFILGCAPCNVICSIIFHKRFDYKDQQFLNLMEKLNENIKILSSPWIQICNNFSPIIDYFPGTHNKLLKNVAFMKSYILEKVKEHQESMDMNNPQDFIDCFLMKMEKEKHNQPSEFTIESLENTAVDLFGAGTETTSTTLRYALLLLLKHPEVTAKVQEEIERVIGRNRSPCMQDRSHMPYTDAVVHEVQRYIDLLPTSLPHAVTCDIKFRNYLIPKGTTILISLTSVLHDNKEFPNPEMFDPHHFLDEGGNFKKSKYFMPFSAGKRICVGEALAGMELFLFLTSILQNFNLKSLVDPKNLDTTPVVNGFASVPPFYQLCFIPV
Experimental: as §1, §2, §3

CYP2E1 = CYP2E1 (Homo sapiens, UniProt P05181); experiment: in vitro; details: for inhibition at 15 min, 10 µM: human, pH 7.4
Chain of CYP2E1 (P05181 whole entry): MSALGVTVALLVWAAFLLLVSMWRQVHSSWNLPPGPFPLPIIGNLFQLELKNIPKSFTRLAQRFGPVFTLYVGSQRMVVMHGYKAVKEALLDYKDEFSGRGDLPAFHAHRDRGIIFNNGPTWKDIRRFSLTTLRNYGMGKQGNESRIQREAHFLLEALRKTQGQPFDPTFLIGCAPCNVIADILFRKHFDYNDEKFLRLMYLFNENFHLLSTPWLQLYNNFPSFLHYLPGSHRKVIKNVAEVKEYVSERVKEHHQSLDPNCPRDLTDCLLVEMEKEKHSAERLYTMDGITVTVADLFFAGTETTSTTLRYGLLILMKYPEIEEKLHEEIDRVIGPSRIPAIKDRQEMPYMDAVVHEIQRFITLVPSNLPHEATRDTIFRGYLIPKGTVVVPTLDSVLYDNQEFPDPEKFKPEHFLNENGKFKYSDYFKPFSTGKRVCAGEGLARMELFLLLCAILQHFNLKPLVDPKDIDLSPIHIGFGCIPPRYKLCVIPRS
Experimental: as §1, §2, §3

CYP3A = CYP3A (Homo sapiens, UniProt P08684); experiment: CYP450 cocktail inhibition assay (LC-MS/MS, human liver microsomes); type: in vitro ADME; details: for inhibition at 15 min, 10 µM / IC50 at 15 min: human, liver microsomes
Chain of CYP3A (P08684 2-503): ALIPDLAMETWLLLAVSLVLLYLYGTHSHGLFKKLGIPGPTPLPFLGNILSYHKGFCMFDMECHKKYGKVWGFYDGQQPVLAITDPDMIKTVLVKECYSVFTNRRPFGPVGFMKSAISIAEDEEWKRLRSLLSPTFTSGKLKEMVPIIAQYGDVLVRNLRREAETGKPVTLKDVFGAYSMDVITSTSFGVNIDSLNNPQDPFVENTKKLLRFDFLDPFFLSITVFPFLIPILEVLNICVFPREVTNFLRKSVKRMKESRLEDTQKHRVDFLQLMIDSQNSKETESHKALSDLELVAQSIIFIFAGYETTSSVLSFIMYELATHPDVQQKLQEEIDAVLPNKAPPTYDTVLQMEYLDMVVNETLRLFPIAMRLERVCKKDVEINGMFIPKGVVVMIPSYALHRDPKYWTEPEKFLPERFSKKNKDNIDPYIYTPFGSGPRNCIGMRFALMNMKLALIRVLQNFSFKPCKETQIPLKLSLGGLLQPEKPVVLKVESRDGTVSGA

CYP1A2 = molecular target: T2, CYP1A2 (Homo sapiens, UniProt P05177); experiment: as above; type: in vitro ADME; details: for IC50: HLM 0.5 mg/mL, substrate Phenacetin 10 μM, 15 min
T2 sequence (P05177 1-516): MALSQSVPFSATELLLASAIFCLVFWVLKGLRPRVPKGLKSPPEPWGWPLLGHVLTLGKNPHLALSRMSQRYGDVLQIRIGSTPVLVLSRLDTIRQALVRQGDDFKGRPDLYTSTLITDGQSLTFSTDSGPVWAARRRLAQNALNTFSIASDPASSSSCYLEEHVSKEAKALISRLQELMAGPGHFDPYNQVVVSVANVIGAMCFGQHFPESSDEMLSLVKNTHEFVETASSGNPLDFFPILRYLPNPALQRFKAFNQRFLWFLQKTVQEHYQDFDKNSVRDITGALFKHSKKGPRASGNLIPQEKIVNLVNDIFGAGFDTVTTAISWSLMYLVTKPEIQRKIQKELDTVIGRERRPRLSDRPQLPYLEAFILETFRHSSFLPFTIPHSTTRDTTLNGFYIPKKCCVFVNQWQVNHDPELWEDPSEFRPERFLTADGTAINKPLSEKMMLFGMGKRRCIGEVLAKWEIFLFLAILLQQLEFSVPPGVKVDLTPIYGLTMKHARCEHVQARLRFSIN
Experimental: as §1, §2, §3

CYP2C19 [1] = molecular target: T3, CYP2C19 (Homo sapiens, UniProt P33261); experiment: as above
T3 sequence (P33261 whole entry): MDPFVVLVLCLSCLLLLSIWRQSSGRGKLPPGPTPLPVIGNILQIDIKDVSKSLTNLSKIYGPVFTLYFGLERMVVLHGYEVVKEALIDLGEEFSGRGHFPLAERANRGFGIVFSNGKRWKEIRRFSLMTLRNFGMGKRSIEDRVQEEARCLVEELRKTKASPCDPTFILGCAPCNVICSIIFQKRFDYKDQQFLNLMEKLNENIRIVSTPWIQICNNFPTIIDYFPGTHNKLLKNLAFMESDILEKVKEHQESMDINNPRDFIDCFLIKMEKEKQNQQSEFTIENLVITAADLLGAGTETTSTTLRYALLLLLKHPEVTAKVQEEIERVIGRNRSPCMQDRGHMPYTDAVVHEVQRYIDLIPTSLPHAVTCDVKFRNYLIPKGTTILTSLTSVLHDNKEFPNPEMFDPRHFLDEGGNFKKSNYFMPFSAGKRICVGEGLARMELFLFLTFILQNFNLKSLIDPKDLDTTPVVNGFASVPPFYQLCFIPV
Experimental: as §1, §2, §3

CYP2D6 [2] = molecular target: T4, CYP2D6 (Homo sapiens, UniProt P10635); experiment: as above
T4 sequence (P10635 whole entry): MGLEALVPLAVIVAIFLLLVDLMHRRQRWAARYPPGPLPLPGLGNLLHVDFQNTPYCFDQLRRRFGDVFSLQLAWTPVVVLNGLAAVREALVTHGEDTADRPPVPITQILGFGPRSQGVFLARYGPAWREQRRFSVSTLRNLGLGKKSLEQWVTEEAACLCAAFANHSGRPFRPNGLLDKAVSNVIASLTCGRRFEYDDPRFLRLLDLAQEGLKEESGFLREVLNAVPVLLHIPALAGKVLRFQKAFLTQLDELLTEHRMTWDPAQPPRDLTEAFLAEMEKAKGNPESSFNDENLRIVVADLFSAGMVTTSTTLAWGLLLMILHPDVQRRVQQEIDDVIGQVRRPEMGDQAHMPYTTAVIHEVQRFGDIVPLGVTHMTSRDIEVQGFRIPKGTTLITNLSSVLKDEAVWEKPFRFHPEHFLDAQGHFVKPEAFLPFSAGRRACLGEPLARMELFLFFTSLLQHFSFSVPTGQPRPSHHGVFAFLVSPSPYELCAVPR
Experimental: as §1, §2, §3

CYP2C19 [3] = molecular target: T3, CYP2C19; experiment: Time-dependent inhibition study (pre-incubation with HLM with/without NADPH, cocktail assay); type: in vitro ADME; details: single point screening; SDEA 0.5 μg/ml, Amentoflavone 0.1 μM, Delicaflavone 2 μM; 35 min pre-incubation with/without NADPH
Experimental: (§4) Enzymes that may be involved in time-dependent were pre-incubated for 0, 5, 10, 15 and 35 min respectively, and then re-incubated to determine the type of inhibition. Residual enzyme activity pre-incubated without NADPH was set as the control group, then drawing suppression curves based on the measured data.

CYP2D6 [4] = molecular target: T4, CYP2D6; experiment: as above; type: in vitro ADME; details: single point screening; SDEA 0.5 μg/ml, Amentoflavone 0.1 μM, Delicaflavone 2 μM; 35 min pre-incubation with/without NADPH
Experimental: as §4

CYP3A (Testosterone) = experiment: as above; type: in vitro ADME, human; details: single point screening; SDEA 0.5 μg/ml, Delicaflavone 2 μM; 35 min pre-incubation with/without NADPH
Experimental: as §4

[5] = pH 7.4, probe Testosterone (in cocktail), single-point, 10 μM, cocktail assay, HLM, substrate Testosterone, read-out: inhibitory effect on CYP3A (Testosterone)
[6] = single-point, 10 μM, cocktail assay, HLM
[7] = pH 7.4, probe Dextromethorphan (3-methoxymorphinan formation, in cocktail)
[8] = pH 7.4, probe Testosterone 5 µM (in cocktail)

Row | Structure (SMILES) | inhibition at 15 min, 10 µM (CYP2C8) | inhibition at 15 min, 10 µM (CYP2C9) | inhibition at 15 min, 10 µM (CYP2E1; microsomes) | inhibition at 15 min, 10 µM (CYP3A; [5]) | IC50 (CYP1A2) | IC50 (CYP2C19 [1]) | IC50 (CYP2C8) | IC50 (CYP2C9) | IC50 (CYP2E1) | IC50 at 15 min (CYP3A; [7]) | IC50 at 15 min (CYP3A; [8]) | other results
1 | O=c1cc(-c2ccc(O)cc2)oc2cc(O)cc(O)c12 [Apigenin] | > 50% | > 50% | > 50% | > 50% |  |  |  |  |  |  |  | 
2 | O=c1cc(-c2ccc(Oc3c(-c4ccc(O)cc4)oc4cc(O)cc(O)c4c3=O)cc2)oc2cc(O)cc(O)c12 [Delicaflavone] |  |  |  |  | 105 µM | 72.8 µM | 13.4 µM | 40 µM | 2.86 µM | 33.3 µM | 7.25 µM | inhibitory effect on CYP1A2 (CYP1A2; single-point, 10 μM, HLM): no obvious inhibitory effect; inhibitory effect on CYP2C19 (CYP2C19 [1]; [6]): no obvious inhibitory effect; inhibitory effect on CYP2C8 (CYP2C8; [6]): no obvious inhibitory effect; inhibitory effect on CYP2C9 (CYP2C9; [6]): no obvious inhibitory effect; inhibitory effect on CYP2D6 (CYP2D6 [2]; [6]): no obvious inhibitory effect; inhibitory effect on CYP2E1 (CYP2E1; [6]): weak inhibitory effect; inhibitory effect on CYP3A (CYP3A; single-point, 10 μM, cocktail assay, HLM, substrate not specified): weak inhibitory effect; time-dependent inhibition on CYP2C19 (CYP2C19 [3]): did not produce time-dependent inhibition effect; time-dependent inhibition on CYP2D6 (CYP2D6 [4]): did not produce time-dependent inhibition effect; time-dependent inhibition on CYP3A (Testosterone) (CYP3A (Testosterone)): did not produce time-dependent inhibition effect
3 | O=c1cc(-c2ccc(O)c(-c3c(O)cc(O)c4c(=O)cc(-c5ccc(O)cc5)oc34)c2)oc2cc(O)cc(O)c12 [Amentoflavone] | > 50% | > 50% | > 50% |  | 3.7 µM | 1.06 µM | 0.144 µM | 0.142 µM | 1.05 µM | 0.827 µM | 0.435 µM | inhibition at 15 min, 10 µM (CYP1A2; human, liver microsomes, pH 7.4, probe Phenacetin (in cocktail), single-point, 10 μM, HLM, read-out: inhibitory effect on CYP1A2): > 50%; inhibition at 15 min, 10 µM (CYP2C19 [1]; human, microsomes, pH 7.4): > 50%; IC50 (CYP2D6 [2]): 4.6 µM; inhibition at 15 min, 10 µM (CYP2D6 [2]; human, microsomes, pH 7.4): > 50%; inhibition at 15 min, 10 µM (CYP3A; pH 7.4, single-point, 10 μM, cocktail assay, HLM, substrate not specified, read-out: inhibitory effect on CYP3A): > 50%
4 | COc1cc2c(cc1OC)-c1cc3ccc(OC)c(OC)c3c[n+]1CC2 [Palmatine] |  |  |  | > 50% |  |  |  |  |  |  |  | inhibitory effect on CYP2E1 (CYP2E1; microsomes, 10 µM): weak inhibitory effect
